Test results taken from US20040254371A1, “New benzothiazine and benzothiadiazine compounds” (priority 2003, published 2004).

Tested on: AMPA receptors
Experiment: Excitatory currents induced by AMPA in Xenopus oocytes (voltage-clamp)
Format: cell-based
Details: Xenopus oocytes injected with rat cerebral cortex poly(A+) mRNA, AMPA 10 μM, 20-24° C.
Description: Study of the excitatory currents induced by AMPA in Xenopus oocytes
mRNA's are prepared from cerebral cortex of male Wistar rats by the guanidinium thiocyanate/phenol/chloroform method. The poly (A^+) mRNA's are isolated by chromatography on oligo-dT cellulose and injected at a level of 50 ng per oocyte. The oocytes are incubated for 2 to 3 days at 18° C. to permit expression of the receptors and are then stored at 8-10° C.
Electrophysiological recording is carried out in a Plexiglass® chamber at 20-24° C. in OR2 medium (J. Exp. Zool., 1973, 184, 321-334) by the “voltage-clamp” method using two electrodes, with a third electrode placed in the bath serving as reference.
All the compounds are applied via the incubation medium and the electric current is measured at the end of the application period. AMPA is used in a concentration of 10 μM. For each compound studied, the concentration that doubles (EC2X) or quintuples (EC5X) the intensity of the current induced by AMPA alone (5 to 50 nA) is determined.

| Compound | EC2X (concentration that doubles the intensity of the current induced by AMPA alone) | EC5X (concentration that quintuples the intensity of the current induced by AMPA alone) |
| --- | --- | --- |
| O=S1(=O)NC2CCCN2c2ccc(Oc3cccc(-c4cnco4)c3)cc21 (stereo not drawn) [Example 18, 7-[3-(1,3-Oxazol-5-yl)phenoxy]-2,3,3a,4-tetrahydro-1H-pyrrolo-[2,1-c][1,2,4]benzothiadiazine 5,5-dioxide] | 0.66 µM | 4 µM |
| O=S1(=O)NC2CCCN2c2ccc(Oc3cccc(-c4nnn[nH]4)c3)cc21 (stereo not drawn) [Example 1, 7-[3-(1H-Tetrazol-5-yl)phenoxy]-2,3,3a,4-tetrahydro-1H-pyrrolo-[2,1-c][1,2,4]benzothiadiazine 5,5-dioxide] | 0.2 µM | 0.8 µM |
| O=S1(=O)NC2CCCN2c2ccc(Oc3cccc(-c4ccoc4)c3)cc21 (stereo not drawn) [Example 17, 7-[3-(3-Furyl)phenoxy]-2,3,3a,4-tetrahydro-1H-pyrrolo[2,1-c][1,2,4]benzothiadiazine 5,5-dioxide] | 4.5 µM | 11.5 µM |
